# In patent publication USRE42013E1, “Macrocyclic modulators of the ghrelin receptor” (Tranzyme Pharma Inc., priority 2003, dated 2010):
# pKi: −log10 of the molar value.
# Molecular target: T1, human growth hormone secretagogue receptor (hGHS-R1a) (Homo sapiens, UniProt Q92847)
# T1 construct: purchased PerkinElmer BioSignal #RBHGHSM, lot#1887; host or cells: HEK-293, stably transfected
# Experiment: Competitive radioligand binding assay (ghrelin receptor), [125I]-ghrelin displacement
# Conditions: Table 3B; binding at human ghrelin receptor, [125I]-ghrelin displacement; read-out: Ki
# Procedure: The competitive binding assay at the human growth hormone secretagogue receptor (hGHS-R1a) was carried out analogously to assays described in the literature.
# Multiscreen Harvest plates-GF/C (Millipore, #MAHFC1H60) • 4. […] Bottom seal (Millipore, #MATAH0P00) • 7. […] Binding Buffer: 25 mM Hepes (pH 7.4), 1 mM CaCl2, 5 mM MgCl2, 2.5 mM EDTA, 0.4% BSA Assay Volumes
# Competition experiments were performed in a 300 μl filtration assay format. • 1. 220 μL of membranes diluted in binding buffer • 2. 40 μL of compound diluted in binding buffer • 3. […] Compound Handling
# Compounds were provided frozen on dry ice at a stock concentration of 10 mM diluted in 100% DMSO and stored at −80° C. until the day of testing. On the test day, compounds were allowed to thaw at rt O/N and then diluted in assay buffer according to the desired test concentrations.
# Plates were sealed with TopSeal-A, vortexed gently and incubated at rt for 30 min. The reaction was arrested by filtering samples through Multiscreen Harvest plates (pre-soaked in 0.5% polyethyleneimine) using a Tomtec Harvester, washed 9 times with 500 μL of cold 50 mM Tris-HCl (pH 7.4, 4° C.), and then plates were air-dried in a fumehood for 30 min. A bottom seal was applied to the plates prior to the addition of 25 μL of MicroScint-0 to each well. […] Results were expressed as counts per minute (cpm).
# Data were analyzed by GraphPad Prism (GraphPad Software, San Diego, Calif.) using a variable slope non-linear regression analysis.
# Compound structures for Tables 3A, 3B and 3D are presented with the various groups as defined for the general structure of formula I. For Tables 3B and 3D, in all entries, m, n and p are 0; X, Z1 and Z2 are each NH. For Table 3B, R1 is H for all entries. The tethers (T) are illustrated with the bonding to X and Z2 as indicated. The compounds themselves are shown for Table 3C.
# • 1. […] Key Aspects of Method • 1. […] Results
# T1 sequence (Q92847 whole entry): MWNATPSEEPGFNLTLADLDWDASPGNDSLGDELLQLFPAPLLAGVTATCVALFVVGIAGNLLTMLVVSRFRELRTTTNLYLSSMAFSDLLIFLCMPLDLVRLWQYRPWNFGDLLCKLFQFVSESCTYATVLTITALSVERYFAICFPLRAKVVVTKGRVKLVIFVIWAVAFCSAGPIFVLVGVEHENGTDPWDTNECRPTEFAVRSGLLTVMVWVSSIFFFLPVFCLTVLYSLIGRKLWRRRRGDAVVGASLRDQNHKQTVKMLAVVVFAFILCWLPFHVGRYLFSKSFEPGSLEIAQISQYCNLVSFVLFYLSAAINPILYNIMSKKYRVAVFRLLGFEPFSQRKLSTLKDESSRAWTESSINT
row,SMILES,pKi
1,CC1C(=O)NC(Cc2ccc(F)cc2)C(=O)NCCC(C)(C)c2ccccc2OCCNC(C2CC2)C(=O)N1C (stereo not drawn) [compound 378],5.00 to 7.00
2,CC1C(=O)NC(Cc2ccc(F)cc2)C(=O)NCCCc2ccc(NS(C)(=O)=O)cc2OCCNC(C2CC2)C(=O)N1C (stereo not drawn) [compound 357],5.00 to 7.00
3,CCC(C)C1NCCOc2ccccc2C=CCNC(=O)C(Cc2cccc(Br)c2)NC(=O)C2(CCCC2)NC1=O (stereo not drawn) [compound 326],> 7.00
4,CCC(C)C1NCCOc2ccccc2C=CCNC(=O)C(Cc2cccc(Cl)c2)NC(=O)C2(CCCC2)NC1=O (stereo not drawn) [compound 380],5.00 to 7.00
5,CCC(C)C1NCCCCCCCNC(=O)C(Cc2cccc(Cl)c2)NC(=O)C2(CCCC2)NC1=O (stereo not drawn) [compound 366],5.00 to 7.00
6,CCC(C)C1NCCOc2cccnc2CCCNC(=O)C(Cc2cccc(Cl)c2)NC(=O)C2(CCCC2)NC1=O (stereo not drawn) [compound 385],5.00 to 7.00
7,CCC(C)C1NCCOCCCCCNC(=O)C(Cc2cccc(Cl)c2)NC(=O)C2(CCCC2)NC1=O (stereo not drawn) [compound 370],5.00 to 7.00
8,CCC(C)C1NCCOc2ccccc2C(C)(C)CCNC(=O)C(Cc2cccc(Cl)c2)NC(=O)C2(CCCC2)NC1=O (stereo not drawn) [compound 359],5.00 to 7.00
9,CCC(C)C1NCCOc2ccccc2C#CCNC(=O)C(Cc2cccc(Cl)c2)NC(=O)C2(CCCC2)NC1=O (stereo not drawn) [compound 381],> 7.00
10,CCC(C)C1NCCOCC=CCCNC(=O)C(Cc2cccc(Cl)c2)NC(=O)C2(CCCC2)NC1=O (stereo not drawn) [compound 360],5.00 to 7.00
11,CC1CCNC(=O)C(Cc2ccc(F)cc2)NC(=O)C(C)N(C)C(=O)C(C2CC2)NCCOc2ccccc21 (stereo not drawn) [compound 375],5.00 to 7.00
12,CCC(C)C1NCCCCCCNC(=O)C(Cc2cccc(Cl)c2)NC(=O)C2(CCCC2)NC1=O (stereo not drawn) [compound 365],5.00 to 7.00
13,CC1C(=O)NC(Cc2ccc(F)cc2)C(=O)NCCC=CCOCCNC(C2CC2)C(=O)N1C (stereo not drawn) [compound 307],5.00 to 7.00
14,N#Cc1ccccc1CC1NCCOc2ccccc2C=CCNC(=O)C(Cc2cccc(Cl)c2)NC(=O)C2(CCCC2)NC1=O (stereo not drawn) [compound 342],5.00 to 7.00
15,CC1C(=O)NC(Cc2ccc(F)cc2)C(=O)NCC=Cc2ccccc2OCCNC(C2CC2)C(=O)N1C (stereo not drawn) [compound 400],> 7.00
16,C[C@@H]1C(=O)N[C@H](Cc2ccc(O)c(C(C)(C)C)c2)C(=O)NCCCc2ccccc2OCCN[C@@H](C2CC2)C(=O)N1C [compound 311],> 7.00
17,CCC(C)C1NCCCNCCNC(=O)C(Cc2cccc(Cl)c2)NC(=O)C2(CCCC2)NC1=O (stereo not drawn) [compound 390],5.00 to 7.00
18,CCC(C)C1NCCOc2ccccc2C(C)CCNC(=O)C(Cc2cccc(Cl)c2)NC(=O)C2(CCCC2)NC1=O (stereo not drawn) [compound 386],5.00 to 7.00

# The next lines start with the values.
row,pKi,SMILES
1,> 7.00,CC1C(=O)NC(Cc2ccc(F)cc2)C(=O)NCCCc2cc(F)ccc2OCCNC(C2CC2)C(=O)N1C (stereo not drawn) [compound 355]
2,5.00 to 7.00,CC1CNC(=O)C(Cc2ccc(F)cc2)NC(=O)C(C)N(C)C(=O)C(C2CC2)NCCOc2ccccc2C1 (stereo not drawn) [compound 376]
3,> 7.00,CCC(C)C1NCCOc2ccccc2CC(C)CNC(=O)C(Cc2cccc(Cl)c2)NC(=O)C2(CCCC2)NC1=O (stereo not drawn) [compound 392]
4,> 7.00,CC1C(=O)NC(Cc2ccc(F)cc2)C(=O)NCCCc2cc(Cl)ccc2OCCNC(C2CC2)C(=O)N1C (stereo not drawn) [compound 373]
5,> 7.00,CC1C(=O)NC(Cc2c[nH]c3ccccc23)C(=O)NCCCc2ccccc2OCCNC(C2CC2)C(=O)N1C (stereo not drawn) [compound 324]

# Same assay, conditions: Table 3D; binding at human ghrelin receptor, [125I]-ghrelin displacement; read-out: Ki
row,pKi,SMILES
1,5.00 to 6.00,CC(C)CC1NCC(C)Oc2ccccc2CCCNC(=O)C(Cc2cccc(Cl)c2)NC(=O)C2(CCCC2)NC1=O (stereo not drawn) [compound 438]
2,5.00 to 6.00,CCC(C)C1NCCCCCNC(=O)C(Cc2cccc(Cl)c2)NC(=O)C2(CCCC2)NC1=O (stereo not drawn) [compound 447]

# Same assay, conditions: Table 3E; binding activity at the human ghrelin receptor, class symbols; read-out: Ki
row,pKi,SMILES
1,5.00 to 6.00,CC(C)C[C@@H]1NCCOc2ccccc2CCCNC(=O)[C@H](Cc2ccccc2)NC(=O)[C@@H]2CCCN2C1=O [compound 222]

# Same assay, conditions: Table 4; binding at human ghrelin receptor; TFA salts unless otherwise noted; read-out: Ki
row,pKi,SMILES
1,6.00 to 7.00,CCC(C)C1NCCOc2ccccc2CCNC(=O)C(Cc2ccccc2)NC(=O)C(C)N(C)C1=O (stereo not drawn) [compound 178]
2,7.00 to 8.00,CCC(C)C1NCCOc2ccccc2CCCNC(=O)C(Cc2cccs2)NC(=O)C(C)N(C)C1=O (stereo not drawn) [compound 34]

# Same assay, conditions: [125I]-ghrelin displacement, hGHS-R1a HEK-293 membranes; read-out: Binding Activity at the Human Ghrelin Receptor (Ki)
row,pKi,SMILES
1,5.00 to 7.00,CCCC1C(=O)N(C)C(C)C(=O)NC(Cc2ccccc2)C(=O)NCCCc2ccccc2OCCN1C (stereo not drawn) [compound 201]
2,< 6.00,O=C1NC2(CCCC2)C(=O)NC(Cc2ccccc2)C(=O)NCC=Cc2ccccc2OCCNC1Cc1ccccn1 (stereo not drawn) [compound 210]
3,< 5.00,CCCC1C(=O)N(C)C(C)C(=O)NC(Cc2ccccc2)C(=O)NCCCc2ccccc2OCCN1C(C)=O (stereo not drawn) [compound 202]
4,< 5.00,CC(=O)N1CCOc2ccccc2C=CCNC(=O)C(Cc2ccccc2)NC(=O)C2(CCCC2)NC(=O)C1CC(C)C (stereo not drawn) [compound 204]
5,7.00 to 8.00,CC(C)C1NCCOc2ccccc2C=CCNC(=O)C(Cc2ccccc2)NC(=O)C2(CCCC2)NC1=O (stereo not drawn) [compound 200]
6,7.00 to 8.00,CCC(C)C1NCCCc2ccccc2CCCNC(=O)C(Cc2ccccc2)NC(=O)C(C)N(C)C1=O (stereo not drawn) [compound 190]
7,< 5.00,CCC(C)C1NCCOc2ccc(C(=N)N)cc2CCCNC(=O)C(Cc2ccccc2)NC(=O)C(C)N(C)C1=O (stereo not drawn) [compound 196]

# Same assay, conditions: binding activity at the human ghrelin receptor; [125I]-ghrelin displacement, hGHS-R1a/HEK-293 membranes; read-out: Ki
row,SMILES,pKi
1,O=C1NCC=Cc2ccccc2OCCNC(C(c2ccccc2)c2ccccc2)C(=O)NC2(CCCC2)C(=O)NC1Cc1ccccc1 (stereo not drawn) [compound 129],< 5.00
2,CC(C)CC1NCCOCCNC(=O)C(Cc2ccccc2)NC(=O)C2(CCCC2)NC1=O (stereo not drawn) [compound 44],< 5.00
3,CC(C)CC1NCCOc2ccccc2C=CCNC(=O)C2(CCCC2)NC(=O)C2(CCCC2)NC1=O (stereo not drawn) [compound 168],5.00 to 7.00
4,CC(C)CC1NCc2ccccc2Sc2ccccc2CNC(=O)C(Cc2ccccc2)NC(=O)C2(CCCC2)NC1=O (stereo not drawn) [compound 108],5.00 to 6.00
5,CC(C)CC1NCCC#CCCNC(=O)C(Cc2ccccc2)NC(=O)C2(CCCC2)NC1=O (stereo not drawn) [compound 106],< 5.00
6,CCC(C)C1NCCOCC=CCNC(=O)C(Cc2ccccc2)NC(=O)C(C)N(C)C1=O (stereo not drawn) [compound 185],5.00 to 7.00
7,CCCC1NC(=O)C2(CCCC2)NC(=O)C(CC(C)C)NCCOc2ccccc2C=CCNC1=O (stereo not drawn) [compound 48],< 5.00
8,CCC(C)C1NCCCCC=CCCNC(=O)C(Cc2ccccc2)NC(=O)C(C)N(C)C1=O (stereo not drawn) [compound 183],< 5.00

# Results, then the compound that gave them:
row,pKi,SMILES
1,7.00 to 8.00,CCC1NCCOc2ccccc2CCCNC(=O)C(Cc2ccccc2)NC(=O)C(C)N(C)C1=O (stereo not drawn) [compound 117]
2,5.00 to 7.00,CCC[C@@H]1NCCOc2ccccc2CCCNC(=O)[C@@H](Cc2ccccc2)NC(=O)CN(CC)C1=O [compound 5]
3,< 5.00,CCCC1NCCOc2ccccc2CCCNC(=O)C(Cc2ccccc2)NC(=O)C(CCCCN)NC1=O (stereo not drawn) [compound 69]
4,< 6.00,CCC(C)C1NCCc2ccccc2C=CCCNC(=O)C(Cc2ccccc2)NC(=O)C(C)N(C)C1=O (stereo not drawn) [compound 188]
5,5.00 to 7.00,CC(C)C1NCCOc2ccccc2C=CCNC(=O)C(Cc2ccccc2)NC(=O)C2(Cc3ccccc3C2)NC1=O (stereo not drawn) [compound 142]
6,5.00 to 7.00,CCCC1NCCOc2ccccc2CCCNC(=O)C(Cc2ccccc2)NC(=O)C(C)(C)NC1=O (stereo not drawn) [compound 66]
7,5.00 to 7.00,CCC(C)C1NCCOc2ccccc2CCNC(=O)C(Cc2ccccc2)NC(=O)C(C)N(C)C1=O (stereo not drawn) [compound 178]
8,7.00 to 8.00,CCCC1NCCOc2ccccc2C=CCNC(=O)C(Cc2ccccc2)NC(=O)C2(CCCC2)NC1=O (stereo not drawn) [compound 137]
9,5.00 to 7.00,O=C1NC2(CCCC2)C(=O)NC(Cc2ccccc2)C(=O)NCC=Cc2ccccc2OCCNC1Cc1cscn1 (stereo not drawn) [compound 134]
10,5.00 to 7.00,CCC(C)C1NCCCCc2ccccc2CCNC(=O)C(Cc2ccccc2)NC(=O)C(C)N(C)C1=O (stereo not drawn) [compound 180]
11,7.00 to 8.00,CCC(C)C1NCCOc2ccccc2CCCNC(=O)C(Cc2cccs2)NC(=O)C(C)N(C)C1=O (stereo not drawn) [compound 34]
